Test results reported in article PMC11769294, “(E)-1-(3-(3-Hydroxy-4-Methoxyphenyl)-1-(3,4,5-Trimethoxyphenyl)allyl)-1H-1,2,4-Triazole and Related Compounds: Their Synthesis and Biological Evaluation as Novel Antimitotic Agents Targeting Breast Cancer” (Pharmaceuticals, 2025).
Several values for one entry are separate records, joined by “and”; a condition that tells them apart may be missing. Identical values can stand only once.

Experiments:
Type in all cases: cell-based, human
leukemia panel = test: NCI60 screen (SRB), panel mean; conditions: one dose 10 µM, 48 h
CCRF-CEM (Leukemia) = test: NCI60 screen (SRB); conditions: 48 h; for growth percent: one dose 10 µM
K-562 (Leukemia) = test: NCI60 screen (SRB); conditions: 48 h; for growth percent: one dose 10 µM
[1] = system: HOP-92 (Non-Small Cell Lung Cancer); test: NCI60 screen (SRB); conditions: 48 h; for growth percent: one dose 10 µM
[2] = system: NCI-H226 (Non-Small Cell Lung Cancer); test: NCI60 screen (SRB); conditions: 48 h; for growth percent: one dose 10 µM
[3] = system: NCI-H23 (Non-Small Cell Lung Cancer); test: NCI60 screen (SRB); conditions: 48 h; for growth percent: one dose 10 µM
[4] = system: NCI-H460 (Non-Small Cell Lung Cancer); test: NCI60 screen (SRB); conditions: for growth percent: one dose 10 µM; for GI50: five-dose
HCC-2998 (Colon Cancer) = test: NCI60 screen (SRB); conditions: 48 h; for growth percent: one dose 10 µM
HCT-15 (Colon Cancer) = test: NCI60 screen (SRB); conditions: 48 h; for growth percent: one dose 10 µM
KM12 (Colon Cancer) = test: NCI60 screen (SRB); conditions: 48 h; for growth percent: one dose 10 µM
SF-268 (CNS Cancer) = test: NCI60 screen (SRB); conditions: 48 h; for growth percent: one dose 10 µM
U251 (CNS Cancer) = test: NCI60 screen (SRB); conditions: 48 h; for growth percent: one dose 10 µM
M14 (Melanoma) = test: NCI60 screen (SRB); conditions: 48 h; for growth percent: one dose 10 µM
MDA-MB-435 (Melanoma) = test: NCI60 screen (SRB); conditions: 48 h; for growth percent: one dose 10 µM
SK-MEL-28 (Melanoma) = test: NCI60 screen (SRB); conditions: 48 h; for growth percent: one dose 10 µM
UACC-62 (Melanoma) = test: NCI60 screen (SRB); conditions: 48 h; for growth percent: one dose 10 µM
OVCAR-3 (Ovarian Cancer) = test: NCI60 screen (SRB); conditions: 48 h; for growth percent: one dose 10 µM
OVCAR-4 (Ovarian Cancer) = test: NCI60 screen (SRB); conditions: 48 h; for growth percent: one dose 10 µM
[5] = system: NCI/ADR-RES (Ovarian Cancer); test: NCI60 screen (SRB); conditions: 48 h; for growth percent: one dose 10 µM
TK-10 (Renal Cancer) = test: NCI60 screen (SRB); conditions: 48 h; for growth percent: one dose 10 µM
PC-3 (Prostate Cancer) = test: NCI60 screen (SRB); conditions: 48 h; for growth percent: one dose 10 µM
MCF7 (Breast Cancer) = test: NCI60 screen (SRB); conditions: 48 h; for growth percent: one dose 10 µM
T-47D (Breast Cancer) = test: NCI60 screen (SRB); conditions: 48 h; for growth percent: one dose 10 µM

`COc1ccc(/C=C/C(c2cc(OC)c(OC)c(OC)c2)n2cncn2)cc1` (stereo not drawn) [Compound 22a, (E)-1-(3-(4-Methoxyphenyl)-1-(3,4,5-trimethoxyphenyl)allyl)-1H-1,2,4-triazole] gave a mean growth percentage (leukemia panel) of 24.0%, a growth percent (CCRF-CEM (Leukemia)) of 35.07% and a growth percent (K-562 (Leukemia)) of 17.72%. It also gave a growth percent [1] of 40.32%, a growth percent [2] of 75.97% and a growth percent [3] of 67.01%. It also gave a growth percent ([4]; 48 h) of 22.14%, a growth percent (HCC-2998 (Colon Cancer)) of 84.15% and a growth percent (HCT-15 (Colon Cancer)) of 31.14%. For the same compound, the growth percent (KM12 (Colon Cancer)) was 30.66%, the growth percent (SF-268 (CNS Cancer)) was 57.07% and the growth percent (U251 (CNS Cancer)) was 31.77%. The growth percent (M14 (Melanoma)) was 17.86%, the growth percent (MDA-MB-435 (Melanoma)) was −9.62% and the growth percent (SK-MEL-28 (Melanoma)) was 62.59%. The growth percent (UACC-62 (Melanoma)) was 33.84%, the growth percent (OVCAR-3 (Ovarian Cancer)) was 9.06% and the growth percent (OVCAR-4 (Ovarian Cancer)) was 96.82%. For the same compound, the growth percent [5] was 36.28%, the growth percent (TK-10 (Renal Cancer)) was 48.52% and the growth percent (PC-3 (Prostate Cancer)) was 31.20%. For the same compound, the growth percent (MCF7 (Breast Cancer)) was 22.5% and 22.48% and the growth percent (T-47D (Breast Cancer)) was 30.79%.

In the case of `COc1ccc(/C=C/C(c2cc(OC)c(OC)c(OC)c2)n2cncn2)cc1O` (stereo not drawn) [Compound 22b, (E)-5-(3-(1H-1,2,4-Triazol-1-yl)-3-(3,4,5-trimethoxyphenyl)prop-1-en-1-yl)-2-methoxyphenol], the mean growth percentage (leukemia panel) is reported as 4.2%, the GI50 (CCRF-CEM (Leukemia); Homo sapiens, five-dose) is reported as 32 nM and the growth percent (CCRF-CEM (Leukemia)) is reported as 6.31%. It also gave a GI50 (K-562 (Leukemia); Homo sapiens, K562, five-dose) of 32 nM, a growth percent (K-562 (Leukemia)) of 8.05% and a GI50 ([1]; Homo sapiens, five-dose) of 67000 nM. The growth percent [1] was 47.98%, the GI50 ([2]; Homo sapiens, five-dose) was 5930 nM and the growth percent [2] was 62.21%. The GI50 ([3]; Homo sapiens, five-dose) was 3470 nM, the growth percent [3] was 41.50% and the GI50 ([4]; Homo sapiens, NCI-H460, 48 h) was 42 nM. The GI50 ([4]; 48 h) was 42.3 nM, the growth percent ([4]; 48 h) was 13.26% and the GI50 (HCC-2998 (Colon Cancer); Homo sapiens, five-dose) was 3000 nM. It also gave a growth percent (HCC-2998 (Colon Cancer)) of 67.70%, a GI50 (HCT-15 (Colon Cancer); Homo sapiens, five-dose) of 50.8 nM and a growth percent (HCT-15 (Colon Cancer)) of 16.53%. It also gave a GI50 (KM12 (Colon Cancer); Homo sapiens, five-dose) of 40.5 nM, a growth percent (KM12 (Colon Cancer)) of 26.67% and a GI50 (SF-268 (CNS Cancer); Homo sapiens, five-dose) of 58.9 nM. It also gave a growth percent (SF-268 (CNS Cancer)) of 54.09%, a GI50 (U251 (CNS Cancer); Homo sapiens, U-251, five-dose) of 50.6 nM and a growth percent (U251 (CNS Cancer)) of 20.72%. It also gave a GI50 (M14 (Melanoma); Homo sapiens, five-dose) of 28.7 nM, a growth percent (M14 (Melanoma)) of −12.29% and a GI50 (MDA-MB-435 (Melanoma); Homo sapiens, five-dose) of 18.3 nM. It also gave a growth percent (MDA-MB-435 (Melanoma)) of −32.99%, a GI50 (SK-MEL-28 (Melanoma); Homo sapiens, five-dose) of 3620 nM and a growth percent (SK-MEL-28 (Melanoma)) of 59.08%. It also gave a GI50 (UACC-62 (Melanoma); Homo sapiens, five-dose) of 47.6 nM, a growth percent (UACC-62 (Melanoma)) of 37.50% and a GI50 (OVCAR-3 (Ovarian Cancer); Homo sapiens, five-dose) of 26 nM. It also gave a growth percent (OVCAR-3 (Ovarian Cancer)) of 15.65%, a GI50 (OVCAR-4 (Ovarian Cancer); Homo sapiens, five-dose) of 7050 nM and a growth percent (OVCAR-4 (Ovarian Cancer)) of 83.51%. The IC50 ([5]; Homo sapiens, five-dose, read-out: IC50 (cell marked * in GI50 column)) was 5250 nM, the growth percent [5] was 10.82% and the GI50 (TK-10 (Renal Cancer); Homo sapiens, five-dose) was 21200 nM. It also gave a growth percent (TK-10 (Renal Cancer)) of 41.24%, a GI50 (PC-3 (Prostate Cancer); Homo sapiens, five-dose) of 36 nM and a growth percent (PC-3 (Prostate Cancer)) of 23.47%. For the same compound, the GI50 (MCF7 (Breast Cancer); Homo sapiens, five-dose) was 33 nM, the growth percent (MCF7 (Breast Cancer)) was 21.2% and 21.22% and the GI50 (T-47D (Breast Cancer); Homo sapiens, T47D, five-dose) was > 100000 nM. It also gave a growth percent (T-47D (Breast Cancer)) of 34.38%.

In the case of `COc1ccc(/C=C/C(c2cc(OC)c(OC)c(OC)c2)n2ccnc2)cc1O` (stereo not drawn) [Compound 23b, (E)-5-(3-(1H-Imidazol-1-yl)-3-(3,4,5-trimethoxyphenyl)prop-1-en-1-yl)-2-methoxyphenol], the mean growth percentage (leukemia panel) is reported as 11.2%, the growth percent (CCRF-CEM (Leukemia)) is reported as 37.13% and the growth percent (K-562 (Leukemia)) is reported as 13.63%. The growth percent [1] was 30.49%, the growth percent [2] was 88.36% and the growth percent [3] was 55.69%. It also gave a growth percent ([4]; 48 h) of 16.55%, a growth percent (HCC-2998 (Colon Cancer)) of 76.97% and a growth percent (HCT-15 (Colon Cancer)) of 24.91%. It also gave a growth percent (KM12 (Colon Cancer)) of 29.04%, a growth percent (SF-268 (CNS Cancer)) of 56.10% and a growth percent (U251 (CNS Cancer)) of 27.12%. It also gave a growth percent (M14 (Melanoma)) of 18.61%, a growth percent (MDA-MB-435 (Melanoma)) of −25.56% and a growth percent (SK-MEL-28 (Melanoma)) of 58.86%. The growth percent (UACC-62 (Melanoma)) was 36.37%, the growth percent (OVCAR-3 (Ovarian Cancer)) was 4.86% and the growth percent (OVCAR-4 (Ovarian Cancer)) was 78.81%. For the same compound, the growth percent [5] was 45.70%, the growth percent (TK-10 (Renal Cancer)) was 84.45% and the growth percent (PC-3 (Prostate Cancer)) was 25.28%. The growth percent (MCF7 (Breast Cancer)) was 17.9% and 17.87% and the growth percent (T-47D (Breast Cancer)) was 40.62%.

`COc1ccc(C2CC(n3ccnc3)c3cc(OC)c(OC)c(OC)c32)cc1O` (stereo not drawn) [Compound 27a, 5-(3-(1H-Imidazol-1-yl)-5,6,7-trimethoxy-2,3-dihydro-1H-inden-1-yl)-2-methoxyphenol] showed a mean growth percentage (leukemia panel) of 73.2%, a growth percent (CCRF-CEM (Leukemia)) of 90.92% and a growth percent (K-562 (Leukemia)) of 44.70%. For the same compound, the growth percent [1] was 59.58%, the growth percent [2] was 97.37% and the growth percent [3] was 91.50%. The growth percent ([4]; 48 h) was 78.74%, the growth percent (HCC-2998 (Colon Cancer)) was 99.22% and the growth percent (HCT-15 (Colon Cancer)) was 59.92%. For the same compound, the growth percent (KM12 (Colon Cancer)) was 50.59%, the growth percent (SF-268 (CNS Cancer)) was 89.96% and the growth percent (U251 (CNS Cancer)) was 80.36%. For the same compound, the growth percent (M14 (Melanoma)) was 73.08%, the growth percent (MDA-MB-435 (Melanoma)) was 5.00% and the growth percent (SK-MEL-28 (Melanoma)) was 78.29%. The growth percent (UACC-62 (Melanoma)) was 65.53%, the growth percent (OVCAR-3 (Ovarian Cancer)) was 57.06% and the growth percent (OVCAR-4 (Ovarian Cancer)) was 100.34%. It also gave a growth percent [5] of 93.87%, a growth percent (TK-10 (Renal Cancer)) of 101.23% and a growth percent (PC-3 (Prostate Cancer)) of 60.69%. The growth percent (MCF7 (Breast Cancer)) was 44.8% and 44.77% and the growth percent (T-47D (Breast Cancer)) was 94.34%.

With `COc1cc(/C=C/C(/C=C/c2cc(OC)c(OC)c(OC)c2)n2ccnc2)cc(OC)c1OC` [Compound 30, 1-((1E,4E)-1,5-bis(3,4,5-trimethoxyphenyl)penta-1,4-dien-3-yl)-1H-imidazole] the mean growth percentage (leukemia panel) was 60.5%, the growth percent (CCRF-CEM (Leukemia)) was 65.10% and the growth percent (K-562 (Leukemia)) was 61.41%. For the same compound, the growth percent [1] was 56.24%, the growth percent [2] was 84.81% and the growth percent [3] was 81.16%. For the same compound, the growth percent ([4]; 48 h) was 93.96%, the growth percent (HCC-2998 (Colon Cancer)) was 99.87% and the growth percent (HCT-15 (Colon Cancer)) was 77.23%. For the same compound, the growth percent (KM12 (Colon Cancer)) was 82.35%, the growth percent (SF-268 (CNS Cancer)) was 91.93% and the growth percent (U251 (CNS Cancer)) was 81.64%. It also gave a growth percent (M14 (Melanoma)) of 82.03%, a growth percent (MDA-MB-435 (Melanoma)) of 45.63% and a growth percent (SK-MEL-28 (Melanoma)) of 100.52%. It also gave a growth percent (UACC-62 (Melanoma)) of 68.23%, a growth percent (OVCAR-3 (Ovarian Cancer)) of 83.41% and a growth percent (OVCAR-4 (Ovarian Cancer)) of 92.69%. It also gave a growth percent [5] of 89.35%, a growth percent (TK-10 (Renal Cancer)) of 115.50% and a growth percent (PC-3 (Prostate Cancer)) of 58.09%. It also gave a growth percent (MCF7 (Breast Cancer)) of 57.42% and a growth percent (T-47D (Breast Cancer)) of 77.54%.
